This note sets out measurements from ChEMBL document CHEMBL3351596, “Design, synthesis and anti-leishmanial activity of novel symmetrical bispyridinium cyclophanes” (Eur J Med Chem, 2015).

The test system of series [1] is Leishmania donovani. Put plainly: Anti-leishmanial activity against Leishmania donovani MHOM/IND/80/Dd8 promastigotes incubated for 72 hrs at 28 degC in presence of 10 mM ethanolamine. Type of series: functional, organism-based. Particulars: MHOM/IND/80/Dd8, 72 h.
For series [2], the system named is Leishmania donovani. Put plainly: Anti-leishmanial activity against Leishmania donovani MHOM/IND/80/Dd8 amastigotes expressing pXG-CEK infected in human THP1 cells incubated for 72 hrs at 37 degC. The series is classed as functional, organism-based. The settings on record: MHOM/IND/80/Dd8, THP-1, 72 h.
A short description of series [3]: Selectivity index, ratio of EC50 for Leishmania donovani MHOM/IND/80/Dd8 promastigotes to EC50 for Leishmania major MHOM/JL/80/ Friedlin promastigotes. The series is classed as functional.
The test system of series [4] is Leishmania major. Put plainly: Anti-leishmanial activity against Leishmania major MHOM/JL/80/ Friedlin amastigotes infected in human THP1 cells incubated for 72 hrs at 37 degC by DAPI staining based assay. The series is classed as functional, organism-based. Particulars: THP-1, 72 h.
Series [5] in a line: Selectivity index, ratio of EC50 for human THP1 cells to EC50 for Leishmania major MHOM/JL/80/ Friedlin amastigotes infected in human THP1 cells. The series is classed as toxicity, cell-based, THP-1. The settings on record: read-out: Ratio EC50.
The test system of series [6] is Leishmania major. Put plainly: Reduction in ATP level in Leishmania major MHOM/JL/80/ Friedlin promastigotes at 0.2 uM measured up to 3 hrs by cell-titer-Glo luminescence assay. Type of series: functional, organism-based.
The subject of series [7] is Leishmania donovani. Put plainly: Anti-leishmanial activity against Leishmania donovani MHOM/IND/80/Dd8 amastigotes infected in human THP1 cells incubated for 72 hrs at 37 degC by DAPI staining based assay. Type of series: functional, organism-based. Particulars: MHOM/IND/80/Dd8, THP-1, 72 h.
Series [8] deals with Leishmania major. Put plainly: Reduction in ATP level in Leishmania major MHOM/JL/80/ Friedlin promastigotes at 0.2 uM after 1 hr by cell-titer-Glo luminescence assay. The series is classed as functional.
Series [9] has as its system Leishmania donovani. Put plainly: Effect on mitochondrial membrane potential in Leishmania donovani MHOM/IND/80/Dd8 promastigotes at 30 uM after 3 hrs by […] dye based fluorescence assay. The series is classed as functional, organism-based.
The next series deals with THP-1. Put plainly: Cytotoxicity against human THP1 cells after 48 hrs by MTT assay. Type of series: cell-based. Particulars: THP-1, 48 h. Background: Formazan colour is commonly taken as a measure of viable cells.
For series [10], the system named is Leishmania donovani. Put plainly: Anti-leishmanial activity against Leishmania donovani MHOM/IND/80/Dd8 promastigotes expressing pXG-CEK incubated for 72 hrs at 28 degC. The series is classed as functional, organism-based. Particulars: MHOM/IND/80/Dd8, 72 h.
In series [11] the test system is Leishmania donovani. Put plainly: Anti-leishmanial activity against Leishmania donovani MHOM/IND/80/Dd8 amastigotes expressing pXG-EK infected in human THP1 cells incubated for 72 hrs at 37 degC. Type of series: functional, organism-based. The settings on record: MHOM/IND/80/Dd8, THP-1, 72 h.
For series [12], the system named is Leishmania donovani. Put plainly: Anti-leishmanial activity against Leishmania donovani MHOM/IND/80/Dd8 promastigotes incubated for 72 hrs at 28 degC in presence of 10 mM choline. The series is classed as functional, organism-based. Particulars: MHOM/IND/80/Dd8, 72 h.
Series [13] can be described thus: Selectivity index, ratio of EC50 for human THP1 cells to EC50 for Leishmania donovani MHOM/IND/80/Dd8 amastigotes infected in human THP1 cells. The series is classed as toxicity, cell-based, THP-1. The settings on record: read-out: Ratio EC50.
Series [14] deals with Leishmania donovani. Put plainly: Anti-leishmanial activity against Leishmania donovani MHOM/IND/80/Dd8 promastigotes expressing pXG empty vector incubated for 72 hrs at 28 degC. Type of series: functional, organism-based. Particulars: MHOM/IND/80/Dd8, 72 h.
The test system of series [15] is Leishmania major. Put plainly: Effect on mitochondrial membrane potential in Leishmania major MHOM/JL/80/ Friedlin promastigotes at 0.2 uM after 1 hr by […] dye based fluorescence assay. Type of series: functional, organism-based.
Series [16] relates to Leishmania major. Put plainly: Reduction in ATP level in Leishmania major MHOM/JL/80/ Friedlin promastigotes at 30 uM after 3 hrs by cell-titer-Glo luminescence assay. The series is classed as functional.
The test system of series [17] is Leishmania donovani. Put plainly: Anti-leishmanial activity against Leishmania donovani MHOM/IND/80/Dd8 promastigotes expressing pXG-EK incubated for 72 hrs at 28 degC. The settings on record: MHOM/IND/80/Dd8, 72 h. The series is classed as functional, organism-based.
Series [18] deals with Leishmania donovani. Put plainly: Anti-leishmanial activity against Leishmania donovani MHOM/IND/80/Dd8 amastigotes expressing pXG empty vector infected in human THP1 cells incubated for 72 hrs at 37 degC. Particulars: MHOM/IND/80/Dd8, THP-1, 72 h. The series is classed as functional, organism-based.
Series [19] concerns Leishmania donovani. Put plainly: Induction of plasma membrane depolarization in Leishmania donovani MHOM/IND/80/Dd8 promastigotes at 30 uM after 3 hrs by […] dye based fluorescence assay. The series is classed as functional, organism-based.
Series [20] deals with Leishmania donovani. Put plainly: Anti-leishmanial activity against Leishmania donovani MHOM/IND/80/Dd8 promastigotes incubated for 72 hrs at 28 degC. The series is classed as functional, organism-based. Particulars: MHOM/IND/80/Dd8, 72 h.
Series [21] concerns Leishmania donovani. Put plainly: Reduction in ATP level in Leishmania donovani MHOM/IND/80/Dd8 promastigotes at 30 uM after 3 hrs by cell-titer-Glo luminescence assay. Type of series: functional, organism-based.
The subject of series [22] is Leishmania major. Put plainly: Anti-leishmanial activity against Leishmania major MHOM/JL/80/ Friedlin promastigotes incubated for 72 hrs at 28 degC. The series is classed as functional, organism-based.
In series [23] the test system is Leishmania major. Put plainly: Induction of plasma membrane depolarization in Leishmania major MHOM/JL/80/ Friedlin promastigotes at 0.2 uM after 1 hr by […] dye based fluorescence assay. The series is classed as functional, organism-based.

Calls of active or inactive are those of the source. No cut-off for these calls is given here.

As usually defined, the EC50 is the concentration giving half of the maximal effect. The term inhibition denotes the percentage by which the read-out fell short of the control. In the case of `c1c[n+]2ccc1NCCCCCNc1cc[n+](cc1)CCCCC2`, the EC50 in the series on Leishmania donovani [1] was found to be 12 µM; in the series with Leishmania donovani [2], 12.7 µM; with Leishmania major [4], 1.26 µM; in the series with Leishmania donovani [7], 7.62 µM; in the series on THP-1 it was 154 µM; in the series with Leishmania donovani [10], 11.5 µM. In addition, the EC50 with Leishmania donovani [11] is 10.5 µM; in the series on Leishmania donovani [12], 11.5 µM; with Leishmania donovani [14], 13.5 µM; in the series with Leishmania donovani [17], 12 µM; with Leishmania donovani [18], 8.84 µM; in the series with Leishmania donovani [20] it was 10.6 µM. This compound returned an EC50 in the series with Leishmania major [22] of 0.07 µM. Moreover, the Ratio EC50 in [3] was 100. The selectivity ratio in [5] came to 122; in series [13], 20.2. In addition, in the series on Leishmania major [6], the inhibition entry was “Active”. This compound returned an inhibition at 0.2 µM with Leishmania major [8] greater than 50%. In addition, the result in the series on Leishmania donovani [9], in the series with Leishmania major [15] and in the series on Leishmania donovani [19] was inactive. The inhibition at 30 µM in the series on Leishmania major [16] was 95%. The inhibition result with Leishmania donovani [21] is “inactive”. The result in the series with Leishmania major [23] was Active.

For `c1cc2cc(c1)CNc1cc[n+](cc1)CCOCC[n+]1ccc(cc1)NC2`, the EC50 with Leishmania major [4] amounted to 8.67 µM; with Leishmania donovani [7] it was 8.92 µM; in the series on THP-1, 195 µM; in the series on Leishmania donovani [20], 33.8 µM; in the series with Leishmania major [22], 5.97 µM. In addition, the selectivity ratio in series [5] came to 22.5.

In the case of `c1cc2cc(c1)CNc1cc[n+](cc1)CCCCC[n+]1ccc(cc1)NC2`, the EC50 worked out at 5.94 µM with Leishmania major [4]; 13.5 µM with Leishmania donovani [7]; 192 µM in the series on THP-1; 52 µM in the series with Leishmania donovani [20]; 16.8 µM with Leishmania major [22]. In addition, the selectivity ratio in [5] turned out to be 32.3; in series [13] it was 14.2.

In the case of `c1cc2cc(c1)C[n+]1ccc(cc1)NCCOCCNc1cc[n+](cc1)C2`, the EC50 in the series with Leishmania major [4] is 1.61 µM; in the series with Leishmania donovani [7] it was 21.2 µM; in the series with THP-1 it was 194 µM; in the series with Leishmania donovani [20] it was 76.3 µM; in the series with Leishmania major [22], 2.87 µM. For the same compound, the figures for the selectivity ratio in [5] and in [13] were 121 and 9.2, respectively.

For `CCCCCCCCCCCCCCCCOP(=O)([O-])OCC[N+](C)(C)C` [MILTEFOSINE], the EC50 is 10.6 µM in the series with Leishmania major [4]; 0.88 µM in the series with Leishmania donovani [7]; 26.9 µM in the series with THP-1; 6.6 µM in the series on Leishmania donovani [20]; 16.6 µM with Leishmania major [22]. Besides, the selectivity ratio was determined as 2.5 in [5] and 30.5 in series [13].

Turning to `c1c[n+]2ccc1NCCOCCNc1cc[n+](cc1)CCCCC2`, the EC50 came to 2.59 µM in the series on Leishmania major [4]; 33.2 µM in the series on Leishmania donovani [7]; 162 µM with THP-1; 31.5 µM with Leishmania donovani [20]; 0.26 µM in the series with Leishmania major [22]. The selectivity ratio in series [5] is 62.7; in series [13], 4.9.

With `C[C@@H]1[C@H](O)[C@@H](C)/C=C/C=C/C=C/C=C/C=C/C=C/C=C/[C@H](O[C@@H]2O[C@H](C)[C@@H](O)[C@H](N)[C@@H]2O)C[C@@H]2O[C@](O)(C[C@@H](O)C[C@@H](O)[C@H](O)CC[C@@H](O)C[C@@H](O)CC(=O)O[C@H]1C)C[C@H](O)[C@H]2C(=O)O` [AMPHOTERICIN B], the EC50 was 0.24 µM with Leishmania major [4]; 0.28 µM in the series on Leishmania donovani [7]; 14.3 µM with THP-1; 0.21 µM in the series with Leishmania donovani [20]; 0.32 µM with Leishmania major [22]. The selectivity ratio was determined as 59.7 in [5] and 51.1 in [13].

On to `c1c[n+]2ccc1NCCOCCNc1cc[n+](cc1)CCOCC2`, for which the EC50 amounted to 2.24 µM in the series with Leishmania major [4]; 20.7 µM in the series with Leishmania donovani [7]; 128 µM in the series with THP-1; 23.4 µM with Leishmania donovani [20]; 0.19 µM in the series with Leishmania major [22]. For the same compound, the selectivity ratio in series [5] is 57.2; in [13], 6.2.

Consider `c1c[n+]2ccc1NCCCCCNc1cc[n+](cc1)CCOCC2`, for which the concentration giving a half-maximal response (EC50) is 2.18 µM in the series with Leishmania major [4]; 13 µM in the series with Leishmania donovani [7]; 215 µM in the series on THP-1; 31.4 µM with Leishmania donovani [20]; 0.26 µM with Leishmania major [22]. The selectivity ratio in series [5] stood at 98.5; in series [13] it was 16.6.

In the case of `c1cc2ccc1CNc1cc[n+](cc1)CCCCC[n+]1ccc(cc1)NC2`, the EC50 in the series with Leishmania major [4] came to 0.97 µM; with Leishmania donovani [7], 38.3 µM; in the series on THP-1, 165 µM; in the series on Leishmania donovani [20], 26.4 µM; in the series on Leishmania major [22], 0.17 µM. For the same compound, the selectivity ratio in [5] was 170; in [13] it was 4.3.

With `c1cc2ccc1CNc1cc[n+](cc1)CCOCC[n+]1ccc(cc1)NC2`, the EC50 in the series with Leishmania major [4] is 17.2 µM; with Leishmania donovani [7] it was 63.7 µM; in the series with THP-1, 222 µM; in the series with Leishmania donovani [20], 76.9 µM; with Leishmania major [22], 26.5 µM. For the same compound, the selectivity ratio in [5] stood at 12.9; in series [13] it was 3.5.
